Values after ≈ are worked out from the molar mass of the structure shown.
Key:
[1] = target: T1, DNA gyrase (Escherichia coli) (UniProt P0AES6+P0AES4); assay: In vitro antibacterial activity against gram-negative organism […] ATCC 13048; format: functional; settings: Enterobacter aerogenes
[2] = target: T1, DNA gyrase (Escherichia coli); assay: In vitro antibacterial against gram-negative organism Escherichia coli JUHL; format: functional; settings: Escherichia coli K-12
[3] = target: T2, DNA gyrase (Staphylococcus aureus) (UniProt P0A0K8+P20831); assay: In vitro antibacterial activity against gram-positive organism Staphylococcus aureus ATCC 6538p; format: functional
T2 sequence (P0A0K8 2-644 limits assumed): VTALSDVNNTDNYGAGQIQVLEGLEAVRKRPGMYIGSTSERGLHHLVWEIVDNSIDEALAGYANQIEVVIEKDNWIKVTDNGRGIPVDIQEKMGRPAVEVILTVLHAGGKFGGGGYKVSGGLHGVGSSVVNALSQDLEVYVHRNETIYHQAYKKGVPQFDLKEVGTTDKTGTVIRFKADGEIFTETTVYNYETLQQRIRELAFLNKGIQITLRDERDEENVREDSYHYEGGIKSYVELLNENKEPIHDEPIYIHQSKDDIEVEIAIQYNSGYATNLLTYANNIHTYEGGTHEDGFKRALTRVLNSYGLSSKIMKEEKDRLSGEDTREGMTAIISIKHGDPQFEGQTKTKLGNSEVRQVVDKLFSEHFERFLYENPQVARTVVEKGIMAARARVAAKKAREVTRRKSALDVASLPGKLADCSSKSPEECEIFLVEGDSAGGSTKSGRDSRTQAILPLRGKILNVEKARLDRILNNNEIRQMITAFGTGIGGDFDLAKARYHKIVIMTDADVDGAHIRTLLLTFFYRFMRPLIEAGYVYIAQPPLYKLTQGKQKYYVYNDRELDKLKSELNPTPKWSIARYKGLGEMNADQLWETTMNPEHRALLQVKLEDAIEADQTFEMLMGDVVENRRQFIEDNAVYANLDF
T2 sequence (P20831 whole entry partner): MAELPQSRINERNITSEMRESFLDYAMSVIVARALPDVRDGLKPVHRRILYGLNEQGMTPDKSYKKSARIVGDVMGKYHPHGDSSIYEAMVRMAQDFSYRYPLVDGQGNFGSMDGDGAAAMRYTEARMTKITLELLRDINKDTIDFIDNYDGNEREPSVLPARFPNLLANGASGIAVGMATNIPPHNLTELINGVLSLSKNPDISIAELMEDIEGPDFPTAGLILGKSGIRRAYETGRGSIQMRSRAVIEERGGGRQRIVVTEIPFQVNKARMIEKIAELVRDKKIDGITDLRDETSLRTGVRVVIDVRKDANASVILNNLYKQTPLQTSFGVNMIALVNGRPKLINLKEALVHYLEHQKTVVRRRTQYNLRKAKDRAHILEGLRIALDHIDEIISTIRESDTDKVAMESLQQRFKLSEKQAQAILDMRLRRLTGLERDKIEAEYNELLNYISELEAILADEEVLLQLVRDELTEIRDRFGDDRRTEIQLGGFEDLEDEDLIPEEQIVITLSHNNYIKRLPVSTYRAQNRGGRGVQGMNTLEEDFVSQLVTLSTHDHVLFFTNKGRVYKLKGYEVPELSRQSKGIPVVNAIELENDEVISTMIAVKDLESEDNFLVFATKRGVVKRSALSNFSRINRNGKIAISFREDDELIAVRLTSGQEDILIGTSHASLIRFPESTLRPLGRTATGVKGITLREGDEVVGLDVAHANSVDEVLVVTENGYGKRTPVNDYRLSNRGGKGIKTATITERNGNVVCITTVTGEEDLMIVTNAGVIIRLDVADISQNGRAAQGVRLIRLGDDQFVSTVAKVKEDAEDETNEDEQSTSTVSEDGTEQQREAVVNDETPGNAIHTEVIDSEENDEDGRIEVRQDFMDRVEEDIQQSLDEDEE

[4] = target: T1, DNA gyrase (Escherichia coli); assay: In vitro antibacterial activity against gram-positive organism Streptococcus bovis A-5169; format: functional; settings: Streptococcus equinus
[5] = In vitro antibacterial activity against gram-negative organism Pseudomonas aeruginosa 5007; format: functional; settings: Pseudomonas aeruginosa; read-out: MIC
[6] = target: T1, DNA gyrase (Escherichia coli); settings: Escherichia coli K-12
Description: Concentration which causes 50% of the gyrase (Escherichia coli H560)-mediated maximal DNA cleavage.

[7] = In vitro antibacterial activity against gram-negative organism Pseudomonas aeruginosa DPHD-2862; format: functional; settings: Pseudomonas aeruginosa; read-out: MIC
Enterococcus faecium = assay: Inhibitory activity against enterococcus faecium Van A; format: functional
[8] = target: T1, DNA gyrase (Escherichia coli); assay: In vitro antibacterial activity against gram-negative organism Klebsiella pneumoniae ATCC 8045; format: functional
Streptococcus pyogenes = assay: In vitro antibacterial activity against gram-positive organism Streptococcus pyogenes EES61; format: functional; settings: Streptococcus pyogenes; read-out: MIC
[9] = target: T1, DNA gyrase (Escherichia coli); assay: In vitro antibacterial activity against gram-negative organism Prov. stuartii CMX-640; format: functional; settings: Providencia stuartii
[10] = target: T1, DNA gyrase (Escherichia coli); assay: In vitro antibacterial activity against gram-positive organism Enterococcus faecium ATCC 8043; format: functional
[11] = target: T2, DNA gyrase (Staphylococcus aureus); assay: In vitro antibacterial activity against gram-positive organism Staphylococcus aureus NCTC-10649M; format: functional
Enterococcus faecalis = assay: Inhibitory activity against enterococcus faecalis Van B; format: functional
[12] = target: T2, DNA gyrase (Staphylococcus aureus); assay: In vitro antibacterial activity against gram-positive organism Staphylococcus aureus 1775; format: functional
[13] = target: T2, DNA gyrase (Staphylococcus aureus); assay: In vivo efficacy against Staphylococcus aureus NCTC-10649M after subcutaneous administration; format: functional, organism-based
[14] = target: T2, DNA gyrase (Staphylococcus aureus); assay: In vivo efficacy against Staphylococcus aureus NCTC-10649M after oral administration; format: functional, organism-based
[15] = target: T1, DNA gyrase (Escherichia coli); assay: In vivo efficacy against Escherichia coli JUHL after oral administration; format: functional, organism-based; settings: Escherichia coli K-12
Pseudomonas aeruginosa = assay: In vivo efficacy against Pseudomonas aeruginosa 5007 following p.o. administration.
[16] = target: T1, DNA gyrase (Escherichia coli); assay: In vivo efficacy against Escherichia coli JUHL by subcutaneous administration; format: functional, organism-based; settings: Escherichia coli K-12
[17] = In vivo efficacy against Pseudomonas aeruginosa 5007 after subcutaneous administration; format: functional; settings: Pseudomonas aeruginosa, sc; read-out: ED50

| Compound | MIC [1] [µg/mL] | MIC [2] [µg/mL] | MIC [3] [µg/mL] | MIC [4] [µg/mL] | MIC [5] [µg/mL] | CC50 [6] [µg/mL] | MIC [7] [µg/mL] | MIC [8] [µg/mL] | MIC (Streptococcus pyogenes) [µg/mL] | MIC [9] [µg/mL] | MIC [10] [µg/mL] | MIC [11] [µg/mL] | MIC [12] [µg/mL] | ED50 [13] [mg/kg] | ED50 [14] [mg/kg] | also measured |
| --- | --- | --- | --- | --- | --- | --- | --- | --- | --- | --- | --- | --- | --- | --- | --- | --- |
| Cc1c(N2CCC(n3cccc3)C2)c(F)cn2c(=O)c(C(=O)O)cc(C3CC3)c12 (stereo not given) | 0.39 (≈ 0.986 µM) | 0.1 (≈ 0.253 µM) | 0.02 (≈ 0.0506 µM) | 0.2 (≈ 0.506 µM) | 1.56 (≈ 3.95 µM) | 0.04 (≈ 0.101 µM) | 25 (≈ 63.2 µM) | 0.05 (≈ 0.126 µM) | 0.1 (≈ 0.253 µM) | 1.56 (≈ 3.95 µM) | 0.1 (≈ 0.253 µM) | 0.01 (≈ 0.0253 µM) | 0.39 (≈ 0.986 µM) | – | – | MIC (Enterococcus faecium): 0.5 µg/mL (≈ 1.26 µM); MIC (Enterococcus faecalis): 0.03 µg/mL (≈ 0.0759 µM) |
| Cc1c(N2C[C@@H]3CCCN[C@@H]3C2)c(F)cn2c(=O)c(C(=O)O)cc(C3CC3)c12 (stereo in doubt; (S,S)45n) | 0.02 (≈ 0.0519 µM) | 0.005 (≈ 0.013 µM) | 0.01 (≈ 0.0259 µM) | 0.05 (≈ 0.13 µM) | – | – | – | 0.01 (≈ 0.0259 µM) | – | 0.39 (≈ 1.01 µM) | 0.1 (≈ 0.259 µM) | 0.01 (≈ 0.0259 µM) | 0.39 (≈ 1.01 µM) | 0.5 | 2.5 | ED50 [15]: 1 mg/kg; ED50 (Pseudomonas aeruginosa): 21.4 mg/kg |
| COc1c(N2CCC(N)C2)c(F)cn2c(=O)c(C(=O)O)cc(C3CC3)c12 (stereo not given) | 0.05 (≈ 0.138 µM) | 0.02 (≈ 0.0553 µM) | 0.05 (≈ 0.138 µM) | 0.39 (≈ 1.08 µM) | 0.39 (≈ 1.08 µM) | 0.3 (≈ 0.83 µM) | 3.1 (≈ 8.58 µM) | 0.01 (≈ 0.0277 µM) | 0.2 (≈ 0.553 µM) | 1.56 (≈ 4.32 µM) | 0.2 (≈ 0.553 µM) | 0.05 (≈ 0.138 µM) | 3.1 (≈ 8.58 µM) | – | – | – |
| NC1CCN(c2nc3c(C4CC4)cc(C(=O)O)c(=O)n3cc2F)C1 (stereo not given) | 0.02 (≈ 0.0602 µM) | 0.02 (≈ 0.0602 µM) | 0.2 (≈ 0.602 µM) | 3.1 (≈ 9.33 µM) | 0.39 (≈ 1.17 µM) | 0.15 (≈ 0.451 µM) | 25 (≈ 75.2 µM) | 0.02 (≈ 0.0602 µM) | 1.56 (≈ 4.69 µM) | 1.56 (≈ 4.69 µM) | 1.56 (≈ 4.69 µM) | 0.2 (≈ 0.602 µM) | 25 (≈ 75.2 µM) | > 8 | > 12 | ED50 [16]: 1 mg/kg; ED50 [15]: 4.7 mg/kg |
| CN1CCN(c2nc3c(C4CC4)cc(C(=O)O)c(=O)n3cc2F)CC1 | 0.39 (≈ 1.13 µM) | 0.2 (≈ 0.577 µM) | 1.56 (≈ 4.5 µM) | 50 (≈ 144 µM) | 3.1 (≈ 8.95 µM) | 1 (≈ 2.89 µM) | > 100 | 0.1 (≈ 0.289 µM) | 12.5 (≈ 36.1 µM) | 50 (≈ 144 µM) | 12.5 (≈ 36.1 µM) | 0.78 (≈ 2.25 µM) | 100 (≈ 289 µM) | – | – | – |
| CC(=O)N[C@H]1C[C@H](C)N(c2nc3c(-c4ccc(F)cc4F)cc(C(=O)O)c(=O)n3cc2F)C1 | 3.1 (≈ 6.73 µM) | 0.78 (≈ 1.69 µM) | 0.1 (≈ 0.217 µM) | 3.1 (≈ 6.73 µM) | 3.1 (≈ 6.73 µM) | 1.3 (≈ 2.82 µM) | > 100 | 0.39 (≈ 0.847 µM) | 0.78 (≈ 1.69 µM) | 25 (≈ 54.3 µM) | 1.56 (≈ 3.39 µM) | 0.2 (≈ 0.434 µM) | 25 (≈ 54.3 µM) | – | – | – |
| NC1CCN(c2c(F)cn3c(=O)c(C(=O)O)cc(C4CC4)c3c2F)C1 (stereo not given) | 0.02 (≈ 0.0573 µM) | 0.01 (≈ 0.0286 µM) | 0.1 (≈ 0.286 µM) | 0.78 (≈ 2.23 µM) | 0.39 (≈ 1.12 µM) | 2.2 (≈ 6.3 µM) | 6.2 (≈ 17.7 µM) | 0.01 (≈ 0.0286 µM) | 0.78 (≈ 2.23 µM) | 3.1 (≈ 8.87 µM) | 0.78 (≈ 2.23 µM) | 0.1 (≈ 0.286 µM) | 6.2 (≈ 17.7 µM) | 2.9 | 14.6 | – |
| Cc1c(N2C[C@H]3CCN[C@H]3C2)c(F)cn2c(=O)c(C(=O)O)cc(C3CC3)c12 (single isomer, unassigned) | 0.05 (≈ 0.135 µM) | 0.05 (≈ 0.135 µM) | 0.05 (≈ 0.135 µM) | 0.39 (≈ 1.05 µM) | 0.39 (≈ 1.05 µM) | – | 6.2 (≈ 16.7 µM) | 0.02 (≈ 0.0538 µM) | – | 0.39 (≈ 1.05 µM) | 0.2 (≈ 0.538 µM) | 0.1 (≈ 0.269 µM) | 6.2 (≈ 16.7 µM) | 0.6 | 1.5 | ED50 [16]: 0.5 mg/kg; ED50 [15]: 1.1 mg/kg; ED50 [17]: 5 mg/kg; ED50 (Pseudomonas aeruginosa): 17.9 mg/kg |
| Cc1c(N2CC[C@H]([C@@H](C)N)C2)c(F)cn2c(=O)c(C(=O)O)cc(C3CC3)c12 | 0.02 (≈ 0.0536 µM) | 0.01 (≈ 0.0268 µM) | 0.002 (≈ 0.00536 µM) | 0.005 (≈ 0.0134 µM) | 0.2 (≈ 0.536 µM) | 0.6 (≈ 1.61 µM) | 3.1 (≈ 8.3 µM) | 0.01 (≈ 0.0268 µM) | < 0.001 | 0.39 (≈ 1.04 µM) | 0.01 (≈ 0.0268 µM) | 0.002 (≈ 0.00536 µM) | 0.2 (≈ 0.536 µM) | 0.3 | 1.2 | ED50 [17]: > 8 mg/kg |
| Cl.O=C(O)c1cn(C2CC2)c2cc(N3CCNCC3)c(F)cc2c1=O [CIPROFLOXACIN HYDROCHLORIDE] | – | – | 0.2 | – | – | – | – | – | – | – | – | 0.39 | > 100 | – | – | MIC (Enterococcus faecium): 4 µg/mL; MIC (Enterococcus faecalis): 1 µg/mL |
| Cc1c(N2CCC(n3ccnn3)C2)c(F)cn2c(=O)c(C(=O)O)cc(C3CC3)c12 (stereo not given) | 0.2 (≈ 0.503 µM) | 0.01 (≈ 0.0252 µM) | 0.01 (≈ 0.0252 µM) | 0.2 (≈ 0.503 µM) | 0.39 (≈ 0.981 µM) | 0.07 (≈ 0.176 µM) | 12.5 (≈ 31.5 µM) | 0.05 (≈ 0.126 µM) | 0.05 (≈ 0.126 µM) | 0.39 (≈ 0.981 µM) | 0.05 (≈ 0.126 µM) | 0.01 (≈ 0.0252 µM) | 0.78 (≈ 1.96 µM) | – | – | – |
